Here are results for 3 compounds from PMC12736791, “Co-Amorphous Systems Based on Dihydroquercetin and L-Lysine: Synthesis and Evaluation” (Pharmaceutics, 2025).

Data set [1] can be described thus: Solubility studies, pharmacopoeial descriptive terms. It counts as physicochemical. To be noted: in water at room temperature.
Protocol: The analysis was performed in accordance with the pharmacopoeial monograph of the State Pharmacopoeia of the Russian Federation XV, which is equivalent to the terms of the Pharmacopoeia of the Eurasian Economic Union and the European Pharmacopeia 11.5 at ambient conditions.
A measured amount of solvent was added to the suspension of the substance, and the mixture was continuously shaken for 1 min and placed in a thermostat set at a temperature of 24.5–25.5 °C for 15 min. If the substance had not completely dissolved, the shaking process was repeated for another minute, and the solution was kept in the thermostat for another 15 min period at the same temperature.
The test system of data set [2] is HEK293 cells. The experiment in a line: Cytotoxicity assay (CCK-8), HEK293. It counts as cell-based, human. To be noted: HEK293, 24 h. The procedure: (§1) The cells were cultured in a medium containing DMEM:FBS:MEM:P/S in a ratio of 88:10:1:1 for Caco-2 (immortalized human colorectal adenocarcinoma) cells, and DMEM:FBS:P/S in a ratio of 89:10:1 for HUVEC (Human umbilical vein endothelial cells), 3T3 (mouse embryonic fibroblasts), and HEK293 (immortalized human embryonic kidney) cell lines. The cell cultures were maintained in 100 mm diameter Petri dishes within a CelMate® CO2 Incubator (Esco Lifesciences Group, Singapore) at 37 °C in an atmosphere containing 5% carbon dioxide and a relative humidity of 95%. The culture medium was refreshed every 24 h.
(§2) To determine cell concentration, 1.0 mL of a trypsin solution containing EDTA, pre-warmed to 37 °C, was added to a Petri dish and incubated for up to 5 min. […] Subsequently, 100 µL of the solution was introduced into the Neubauer chamber XB.K.25 (QUIJING, Shanghai, China), and the concentration (cells/mL) was calculated using the following formula:(1) C=Ncell/Nsquares×[…], where Ncell represents the number of cells counted in the Neubauer chamber field and Nsquares represents the number of squares in the Neubauer chamber used for concentration calculation. […]
(§3) The resulting solutions were analyzed on a microplate spectrophotometer Eon (BioTek, Winooski, VT, USA) at the maximum absorption of the reduced form of CCK-8, measured at 450 nm. […]

The test system of data set [3] is Caco-2 cells. The experiment in a line: Cytotoxicity assay (CCK-8), Caco-2. It counts as cell-based, human. The note with it: Caco-2, 24 h. As to the method: as §1, §2, §3
The test system of data set [4] is HUVEC cells. Briefly: Cytotoxicity assay (CCK-8), HUVEC. It counts as cell-based, human. To be noted: 24 h. As to the method: as §1, §2, §3
The test system of data set [5] is 3T3 cells. Briefly: Cytotoxicity assay (CCK-8), 3T3. It is filed as cell-based, mouse. As to the method: as §1, §2, §3
On the set-up of data set [6]: method as in earlier work. The note with it: water, room temperature; European Pharmacopoeia 11.5; cited from earlier work.
On the set-up of data set [7]: method as in PMID 38139995. To be noted: unmodified flavonoid; cited from earlier work.

The structures appear in SMILES notation. ≈ marks a conversion by molar mass, not a printed value. Read-outs that look alike come from different tables or passages of the source.

As to `O=C1c2c(O)cc(O)cc2OC(c2ccc(O)c(O)c2)C1O` (centres unmarked) [DHQraw, 2,3-dihydro-3,5,7-trihydroxy-2-(3,4-dihydroxyphenyl)-4H-1-benzopyran-4-one], the “Solubility (pharmacopoeial descriptive term)” value in data set [1] and in data set [6] was “very slightly soluble” throughout. Further, the IC50 (commonly the concentration needed to halve the response being measured) in data set [2] (Homo sapiens, read-out: IC50) was 39 mg/L (≈ 128 µM); in data set [3] (Homo sapiens, read-out: IC50), 65 mg/L; in data set [4] (Homo sapiens, read-out: IC50), 88 mg/L (≈ 289 µM); in data set [5] (Mus musculus, NIH3T3, 3T3, 24 h, read-out: IC50), 96 mg/L (≈ 316 µM).

`O=c1c(-c2ccc(O)cc2)coc2cc(O)cc(O)c12` [genistein]: the Solubility of genistein in data set [7] was 0.05 ± 0.01 µg/mL.

In the case of `NCCCC[C@H](N)C(=O)O` [LYSlyo], the IC50 was 1490 mg/L (≈ 10200 µM) in data set [2]; 538 mg/L in data set [3]; 826 mg/L (≈ 5650 µM) in data set [4]; “above the maximum concentration” in data set [5] (3T3, 24 h).
